Assay results from PMC7173930, “EAT-18 is an essential auxiliary protein interacting with the non-alpha nAChR subunit EAT-2 to form a functional receptor” (PLoS Pathogens, 2020).

Key:
[1] = molecular target: T1, Cel-EAT-2 + Asu-EAT-18 + Asu-RIC-3 (Caenorhabditis elegans, UniProt Q9U298)
[2] = tested on: nAChRs expressed in the pharynx of A. suum; experiment: tissue or blood; format: cell-based
Procedure: A. suum pharyngeal dissections and electrophysiology recordings were adapted from Martin [49]. Briefly, pharynx was dissected out from the head region of the worm and mounted on Sylgard (Sigma-Aldrich Inc., USA)—lined in a double jacketed bath chamber maintained at 28°C. The muscle layer surrounding the anterior 3rd of the pharynx was preserved for anchoring. The intestine attached to the posterior end of the pharynx was used for stretching and pinning down. The preparation was continuously perfused with calcium-free Ascaris Perienteric Fluid-Ringer (calcium-free APF-Ringer) composition (mM): NaCl 23, Na-acetate 110, KCl 24, MgCl2 11, glucose 11, and HEPES 5; NaOH or acetic acid was added to adjust the pH to 7.6. […] The rate of localized perfusion was 3.5–4 ml min^−1 through a 20-gauge needle, which was placed directly above the recording region of the pharynx. […] We used 3 M potassium acetate in our micropipettes to get the final resistances of 4–7 MΩ for the voltage sensing and 0.5–1 MΩ for the current injecting electrode for current-clamp recordings. The current-injecting electrode injected hyperpolarizing step currents of −1000 nA for 500 ms at 0.3 Hz.
We constructed the sigmoidal concentration-response plots by fitting the data by nonlinear regression to determine the pEC50 and the maximal response (Rmax). Extra sum of squares F-test was used to test statistical differences between pEC50, slope, and maximal response. The significance levels were set to P<0.05.
In applications containing arecoline and pilocarpine, we used mecamylamine, a nAChR antagonist (30µM) to inhibit nAChRs and to allow only mAChR activation.

Asu-EAT-2 nAChR = Asu-EAT-2 nAChR (Ascaris suum, UniProt F1L9Y6); experiment: cell-based; format: cell-based, A. suum; conditions: read-out: current response normalized to the control 100 μM ACh current
Asu-EAT-2 nAChR, sequence (F1L9Y6 entry or part of it): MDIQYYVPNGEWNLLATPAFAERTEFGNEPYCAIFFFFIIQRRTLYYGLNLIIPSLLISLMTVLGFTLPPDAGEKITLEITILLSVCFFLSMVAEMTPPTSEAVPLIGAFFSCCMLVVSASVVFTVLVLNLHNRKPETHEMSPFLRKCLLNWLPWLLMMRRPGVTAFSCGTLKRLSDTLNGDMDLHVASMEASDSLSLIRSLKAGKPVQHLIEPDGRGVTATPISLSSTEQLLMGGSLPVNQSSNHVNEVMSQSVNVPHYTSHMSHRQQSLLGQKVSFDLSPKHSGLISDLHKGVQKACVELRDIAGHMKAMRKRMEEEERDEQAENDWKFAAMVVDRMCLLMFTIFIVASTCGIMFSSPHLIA
Asu-EAT-2 nAChR, sequence (F1L1D9 entry or part of it, further chain): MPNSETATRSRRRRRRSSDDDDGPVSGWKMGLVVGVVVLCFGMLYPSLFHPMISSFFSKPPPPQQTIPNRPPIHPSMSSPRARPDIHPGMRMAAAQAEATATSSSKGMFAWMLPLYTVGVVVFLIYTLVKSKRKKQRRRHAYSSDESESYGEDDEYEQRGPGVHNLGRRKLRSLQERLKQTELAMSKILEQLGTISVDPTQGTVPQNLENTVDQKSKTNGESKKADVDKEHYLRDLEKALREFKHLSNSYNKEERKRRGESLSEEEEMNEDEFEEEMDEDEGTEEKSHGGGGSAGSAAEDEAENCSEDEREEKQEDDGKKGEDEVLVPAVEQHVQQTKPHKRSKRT

[3] = molecular target: T1, Cel-EAT-2 + Asu-EAT-18 + Asu-RIC-3; experiment: cell-based
[4] = molecular target: T2, Cel-EAT-2 and Cel-EAT-18c nAChR (Caenorhabditis elegans, UniProt Q9U298); experiment: Two-electrode voltage-clamp of Cel-EAT-2 + Cel-EAT-18c nAChR expressed in Xenopus oocytes; format: cell-based
T2 sequence (Q9U298 22-474): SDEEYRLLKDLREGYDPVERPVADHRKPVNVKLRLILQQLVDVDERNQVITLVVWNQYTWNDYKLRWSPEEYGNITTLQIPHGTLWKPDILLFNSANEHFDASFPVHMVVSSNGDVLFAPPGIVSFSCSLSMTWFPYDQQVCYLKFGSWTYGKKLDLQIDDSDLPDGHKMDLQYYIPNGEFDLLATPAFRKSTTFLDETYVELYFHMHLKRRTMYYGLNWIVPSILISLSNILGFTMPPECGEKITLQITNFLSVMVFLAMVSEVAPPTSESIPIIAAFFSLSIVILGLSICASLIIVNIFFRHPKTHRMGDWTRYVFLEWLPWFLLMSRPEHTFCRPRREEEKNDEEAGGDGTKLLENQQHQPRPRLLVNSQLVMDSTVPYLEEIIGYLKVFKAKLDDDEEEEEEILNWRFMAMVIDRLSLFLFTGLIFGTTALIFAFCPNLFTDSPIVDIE

With `CN1CCC[C@H]1c1cccnc1` [nicotine] the Imax [1] was 96.5 ± 2.3%, the “Hill slope (nH)” value [2] was 1.7±0.6 and the maximal response [2] was 79.3 ± 4.3 μS. It also gave an Emax ([2]; Ascaris suum, read-out: % change in membrane conductance (δG) normalized to the ACh δG) of 92 ± 6.2%, an EC50 ([2]; Ascaris suum, read-out: pEC50 (converted)) of 10 µM and an Emax (Asu-EAT-2 nAChR) of 105 ± 5.7%. For the same molecule, the EC50 [3] was 18.7 µM, the EC50 [4] was 63.1 µM and the “Hill slope (nH)” value [4] was 2.4±0.4. The Imax [4] was 54.6 ± 2.6%, the “current response normalized to the control 100 μM ACh current (Imax)” value [4] was 55 ± 8.0% and the Emax at 100 µM ([4]; read-out: current response normalized to the control 100 μM ACh current (Imax)) was 55 ± 8%.
